Data on three compounds can be found in patent publication US20170246137A1, “SULFESTROL FOR TREATING CANCER” (CHAMAELEO PHARMA BVBA, priority 2012, published 2017).

One data set has as its system LNCaP. Briefly: In vitro direct cytotoxicity, Cell titer Blue viability, 72 hrs. In kind it is cell-based. How it is done: (§1) Cells were harvested, washed, re-suspended into growth medium and counted.
(§2) Stocks of all compounds were then serially diluted. […] Positive control was Taxotere. Taxotere was diluted in 100% DSMO to give a stock concentration of 1 mM. Stock was serially diluted. Final concentrations to which cells were exposed were 1000, 333.3, 111.1, 37.0, 12.3, 4.1, 1.4, 0.5, and 0.2 nM.

The next data set concerns DU-145. The description is as above. In kind it is cell-based. How it is done:
as §1, §2

Data set [1] in a line: Estrogenic activity: body weight and plasma cholesterol levels. The data set is classed as in vivo, male Sprague-Dawley rats. Conditions: for Mean bodyweight: in g (unit assumed). How it is done:
Estrogenic activity was determined by measuring body weight and plasma cholesterol levels.
Each animal was dosed three times a day with vehicle or test compound (1st dose 7:30-8:00, 2nd dose 12:30-13:00, 3rd dose 17:00-17:30) for 14 consecutive days.
After 14 days treatment, blood was collected from the animals via cardiac puncture 4 hrs past final dosing to analyze plasma cholesterol levels. The blood was immediately transferred to a tube containing 0.5M EDTA anticoagulant. It was mixed gently and centrifuged at 1000×g at 4° C. for 15 min. Plasma was aspirated from the centrifuged blood samples, quick frozen on dry ice and stored at −80° C. for later use.
Plasma cholesterol levels were determined using a commercial ELISA kit obtained from NovaTeinBio (BG-RAT11262). Standard protocol accompanied by the kit was used without any adjustments.

A further data set relates to prostate cancer cells. Conditions: cited from earlier work.
The conditions of data set [2]: patients suffering from prostate cancer, 5 mg p.o. per day; cited from earlier work.
Data set [3] has as its system DU-145 prostate cancer cells. The following applies: cited from earlier work.
Data set [4] concerns platelet-rich plasma (PRP). Briefly: Platelet-aggregation-inducing effects in platelet-rich plasma, absorbance 630 nm. The data set is classed as cell-based. The following applies: 7 minutes, human PRP. How it is done: Blood necessary to generate PRP was obtained from 4 healthy human volunteers. 100 ml of fresh venous blood from each donor was isolated directly into tubes containing 1/10th volume of the anti-coagulant Tri-Sodium Citrate (3.2% w/v). The blood and anti-coagulant were immediately mixed and the final concentration of Tri-Sodium Citrate was 0.0106 M.
PRP was prepared by centrifugation of anti-coagulated blood at 180 g for 10 minutes at room temperature. The cloudy yellow supernatant containing the platelets was removed and placed into a clean polypropylene tube. Platelet-poor plasma (PPP) was prepared by centrifuging the remaining sample at 1,200 g for 20 minutes at room temperature. The PRP was adjusted to a suitable platelet count and absorbance at 630 nm by addition of PPP.
All three compounds were dissolved in 100% DMSO to give a stock concentration of 60 mM. […] […] 100 nM gamma thrombin (Cambridge bioscience) was used as control for platelet aggregation. 90 μl aliquots of PRP were added to 96 wells plates. A baseline absorbance reading was taken at 630 nm. 5 μl of the compounds and gamma thrombin control was added to the appropriate PRP.
The plates were incubated at room temperature for 7 minutes on a plate shaker with continuous shaking. A second A630 nm reading was made after the 7 minutes incubation to measure any platelet aggregation induced by the compounds.

Another data set has as its system MCF7. Briefly: In vitro direct cytotoxicity, Cell titer Blue viability, 72 hrs. The following applies: MCF7. How it is done: (§3) Cells were maintained in vitro in RPMI 1640 containing 10% (v/v) heat inactivated FBS and 2 mM L-glutamine (growth media) at 37° C. in 5% CO2 and humidified conditions. Cells were harvested, washed, resuspended into growth medium and counted. The cells were re-suspended into assay media (RPMI 1640+1% (v/v) heat inactivated FBS+ and 2 mM L-glutamine) at 0.5-1×10^5 cells/ml (dependent upon cell type) and plated into 96-well assay plates (Corning, black-wall plates) in 50 ul/well aliquots.
(§4) Plates were incubated overnight at 37° C. in 5% humidified CO2 prior to addition of the compounds. […] Stocks of all compounds were then serially diluted. Final concentrations to which cells were exposed were 300, 150, 75, 37.5, 18.75, 9.4, 4.7, 2.3, 1.2, 0.6 μM. Positive control was Cisplatin. Cisplatin was diluted in 1% FBS media to give a stock concentration of 1 mM. Cisplatin stock was then serially diluted. Final concentrations to which cells were exposed were 100, 50, 25, 12.5, 6.3, 3.1, 1.6, 0.8, 0.4, 0.2 μM.
(§5) Plates were incubated for 72 hrs at 37° C. in 5% humidified CO2 after addition of the compounds. Viability of the cells was assessed with the Cell titer Blue™ (Promega) assay. 10 μl of Cell titer Blue™ reagents was added to each test/blank well. Plates were incubated 3 h at 37° C. in 5% humidified CO2 prior to analysis. Fluorescence was measured with a Flex II station plate reader. Excitation wavelength was 570 nm, emission wave length was 600 nm, cut off was 590 nm. Raw data was processed by GraphPad Prism to calculate mean, standard deviation and IC50 values.
A general note: Resazurin is reduced to fluorescent resorufin, in cell work by metabolically active cells.

The next data set relates to MDA-MB-231. Described as above. Conditions: MDA-MB231. How it is done:
as §3, §4, §5

Data set [5] in a line: In vitro metabolism in human liver microsomes (STS and CYP). In kind it is in vitro ADME. The following applies: for Contribution to metabolism / half-life at 5 μM / Half-life: 5 μM; for half-life at 5 μM: human, liver microsomes. On the procedure:
In vitro metabolism pathways of DES, Mono-Sulfestrol and Di-Sulfestrol in human liver microsomes were investigated.
Special emphasis was put on desulfatation by steroid sulfatase (STS) and oxidation by cytochrome P (CYP) metabolism. Liver microsomes (Celsis in vitro Technologies) were used at a concentration of 0.5 mg/ml in a volume of 600 μl phosphate buffer pH 7.4. Estrone-3-sulfate was used as positive control.
5 μM of each compound (test and control compound) was added to the liver microsomes and the mixture was incubated at 37° C. for 5, 10, 20, 30, 50, 90 and 120 minutes. After incubation, aliquots of 45 μl were taken which were subsequently quenched with 150 μl ice cold methanol. Aliquots were incubated ≧1 h at −20° C. for protein precipitation. After precipitation, samples were centrifuged and remaining supernatant was used for analysis with LC-MS/MS. Half life of the compounds, speed of metabolism or intrinsic clearance (Clint), and contribution to metabolism of CYP and STS metabolism were calculated based on the data obtained at each time point.
A general note: Liver microsomes are a subcellular fraction often used to study metabolism.

Data set [6] relates to MCF-7 breast cancer cells. The following applies: cited from earlier work.
Where [7] appears, read: + NADPH + 667-Coumate (STS inactive, CYP active).
Setting [8] is: nothing added (STS active, CYP inactive).

For orientation: IC50 means the concentration that gives 50% inhibition. High values mean lower potency, low ones higher potency. Turning to `CC(=O)O[C@@]12CO[C@@H]1C[C@H](O)[C@@]1(C)C(=O)[C@H](O)C3=C(C)[C@@H](OC(=O)[C@H](O)[C@@H](NC(=O)OC(C)(C)C)c4ccccc4)C[C@@](O)([C@@H](OC(=O)c4ccccc4)[C@H]21)C3(C)C` [Taxotere, reference compound], the IC50 with LNCaP (Homo sapiens, hormone-dependent prostate cancer cell line, 72 hrs) worked out at 2 nM; with DU-145 (Homo sapiens, DU-145, hormone-independent prostate cancer cell line, 72 hrs), 4 nM.
A word on the half-life: it is how long it takes for the measured level to halve. Consider `CC/C(=C(/CC)c1ccc(O)cc1)c1ccc(O)cc1` [DES, diethylstilbestrol, reference compound], for which the Mean bodyweight was found to be 382 ± 7.8 in data set [1] (Day 0, DES 1.5 mg/kg per day, Di-Sulfestrol 3 mg/kg per day, three doses a day); 379 ± 9.3 in [1] (Day 2); 361 ± 8.6 in data set [1] (Day 4); 350 ± 8.0 in data set [1] (Day 6); 342 ± 8.0 in data set [1] (Day 8); 341 ± 7.8 in data set [1] (Day 10). Besides, the Mean bodyweight is 337 ± 8.4 in data set [1] (Day 12) and 339 ± 9.80 in data set [1] (Day 14). Besides, the “Cholesterol (plasma)” value in data set [1] (after 14 days treatment, 4 hrs past final dosing, DES 1.5 mg/kg per day, Di-Sulfestrol 3 mg/kg per day) came out at 14.9 ± 0.724 nmol/L. Also, the “estrogenic activity in rats (in words)” value in data set [1] (lowering body weight and cholesterol levels) is given as “show estrogenic activity”. The “concentrations that do not influence prostate cancer cell growth” value with prostate cancer cells is “up to 100 ng/ml”. In the data set with prostate cancer cells, the “minimal concentration to induce cytotoxic effects” value is 1 µg/mL. For the same compound, the “increase of non-cancer related deaths, mostly cardiovascular” value in [2] was 36%. For the same compound, the “cytotoxic effects (in words)” value in [3] is “cytotoxic effects”. The “cytotoxicity in vitro (in words)” value in the data set on LNCaP, in the data set with DU-145 (DU-145), with MCF7 and with MDA-MB-231 was “cytotoxic” in each case. Further, the “Absorbance (630 nm)” value came to 0.264 ± 0.030 in [4] (2.3 μM, high absorbance = low aggregation); 0.266 ± 0.031 in data set [4] (4.7 μM); 0.264 ± 0.030 in data set [4] (9.4 μM); 0.264 ± 0.030 in [4] (18.75 μM); 0.264 ± 0.030 in data set [4] (37.5 μM); 0.268 ± 0.032 in data set [4] (75 μM). Also, in data set [4] (150 μM), the “Absorbance (630 nm)” value came out at 0.263 ± 0.033. In addition, the “metabolism pathway in human liver microsomes (in words)” value in data set [5] is on record as “only processed by CYP metabolism”. For the same compound, the Contribution to metabolism amounted to 131% in data set [5] (setting [7]) and 9% in [5] (setting [8]). Further, the half-life at 5 μM in data set [5] (pH 7.4, + NADPH (STS and CYP active)) is 18 min; in [5] (pH 7.4, nothing added (STS active, CYP inactive)), 194 min; in [5] (pH 7.4, with 667-Coumate (STS inhibitor; concentration not stated), + NADPH + 667-Coumate (STS inactive, CYP active)), 14 min. Also, the “effect on cell growth in vitro (in words)” value in data set [6] was “reduced cell growth in vitro”.
As to `C[C@]12CC[C@@H]3c4ccc(OS(=O)(=O)O)cc4CC[C@H]3[C@@H]1CCC2=O` [E-3-S, Estrone-3-sulfate], the values for the Contribution to metabolism in data set [5] (setting [7]) and in data set [5] (setting [8]) were 19% and 44%, respectively. Also, the Half-life came out at 62 min in [5] (setting [7]) and 27 min in [5] (setting [8]).
